Data published in ChEMBL document CHEMBL3886721, “Thienopyrimidine compounds and use thereof” (2016).

Molecular target: T1, Gonadotropin-releasing hormone receptor (Macaca fascicularis, UniProt G7P5Q7)
T1 sequence (G7P5Q7 whole entry): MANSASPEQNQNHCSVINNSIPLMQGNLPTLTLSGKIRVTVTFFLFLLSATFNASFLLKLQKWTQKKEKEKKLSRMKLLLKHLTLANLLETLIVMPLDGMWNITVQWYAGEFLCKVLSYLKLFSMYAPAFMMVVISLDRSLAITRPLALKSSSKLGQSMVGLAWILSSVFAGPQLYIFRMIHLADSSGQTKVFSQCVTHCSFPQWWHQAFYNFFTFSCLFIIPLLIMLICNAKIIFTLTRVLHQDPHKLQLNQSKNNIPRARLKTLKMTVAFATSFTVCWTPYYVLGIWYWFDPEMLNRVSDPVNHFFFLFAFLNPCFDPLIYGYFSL
Assay: 125I-Leuprorelin Binding Assay: The monkey and human membrane fractions prepared were diluted with the assay buffer to yield a 200 µg/ml dilution, each of which was then dispensed at 188 μl per tube. To a tube containing the cell membrane fraction of the CHO with monkey GnRH receptors expressed were added 2 μl of a solution of 20 mM compound in 60% DMSO and 10 μl of 38 nM 125I-leuprorelin. To a tube containing the cell membrane fraction of the CHO with human GnRH receptors expressed were added 2 μl of a solution of 2 mM compound in 60% DMSO and 10 μl of 38 nM 125I-leuprorelin. To determine maximum binding quantity, a reaction mixture containing 2 μl of 60% DMSO and 10 μl of 38 nM 125I-leuprorelin was prepared. To determine non-specific binding amount, a reaction mixture containing 2 μl of a solution of 100 μM leuprorelin in 60% DMSO and 10 μl of 38 nM 125I-leuprorelin was prepared.

In the case of CCOCCN(C)Cc1c(-c2ccc(NC(=O)NOC)cc2)sc2c1c(=O)n(-c1ccccn1)c(=O)n2Cc1c(F)cccc1F, the IC50 is reported as 3 nM.
